Measured values reported in patent publication US11447485B2, “Class of bifunctional compounds with quanternary ammonium salt structure” (Beijing Showby Pharmaceutical Co., Ltd., priority 2016, dated 2022).

Legend:
[1] = system: tracheal smooth muscle of guinea pig; experiment: Relaxation of CCh-induced constriction of isolated guinea pig tracheal smooth muscle (Experimental Example 1); conditions: for Onset time (min) ± SD / Time for eliminating inhibition effect (min): CCh 3 × 10^−6 mol/L, in vitro; for EC50: Cavia porcellus, read-out: EC50 (μM) ± SD
Protocol: The upper end was connected with a muscle tension transducer, and the specimen was given a resting tension of 1.0 g. Muscle tension changes were recorded, nutrient solution was changed every 20 min, and the experiment was started after 60 min of equilibrium.
Administration Method: After the trachea flake were stabilized, 3×10^−6 mol/L CCh was added to the bath. […] Diastolic condition of the trachea flake was observed. If no response occurred (below the threshold concentration), the next dosage was continued to be added in the order. If any response occurred, the next dosage was added until its diastolic platform was reached. The above operation was repeated until the shrink curve reached the minimum. Finally, 10^−6 mol/L isoproterenol was added to establish maximum relaxation, and the curve was recorded.
Statistical Methods: Statistics was performed using the Sigma Stat statistical software package, the data was analyzed by using the variance analysis. Student-Newman-Keuls (SNK) test was used in comparison among multiple sample averages number. The statistical test level was α=0.05 (bilateral).

[2] = biological target: T1, human recombinant β2 adrenoceptor (Homo sapiens, UniProt P07550); experiment: cell-based; type: cell-based; conditions: EC50 (β1)/EC50 (β2)
T1 construct: expressed in transfected cells
T1 sequence (P07550 whole entry): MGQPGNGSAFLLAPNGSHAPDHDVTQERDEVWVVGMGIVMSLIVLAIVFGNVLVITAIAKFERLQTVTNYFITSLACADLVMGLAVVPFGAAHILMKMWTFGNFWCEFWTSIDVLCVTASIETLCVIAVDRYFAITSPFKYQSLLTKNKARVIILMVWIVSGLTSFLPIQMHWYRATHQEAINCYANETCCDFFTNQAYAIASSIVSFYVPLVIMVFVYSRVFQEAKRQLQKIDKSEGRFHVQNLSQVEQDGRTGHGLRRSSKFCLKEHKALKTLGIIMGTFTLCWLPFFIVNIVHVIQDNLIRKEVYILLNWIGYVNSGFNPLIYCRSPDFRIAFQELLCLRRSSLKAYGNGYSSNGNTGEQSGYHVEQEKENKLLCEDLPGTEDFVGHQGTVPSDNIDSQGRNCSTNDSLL

[3] = system: bronchoconstriction response in the trachea of guinea pig induced by Mch; experiment: Bronchoconstriction induced by methacholine (Mch) in anaesthetized guinea pigs, airway dripping (Raw, Cdyn); conditions: Mch 10 μg/kg iv; for Cdyn (ml/cmH2O) / Raw (cmH2O/ml/s): 30 min, Mean ± S.E.M

Row | SMILES | Onset time (min) ± SD [1] [min] | Time for eliminating inhibition effect (min) [1] | EC50 [1] [µM] | sel (β1/β2) [2] | Cdyn (ml/cmH2O) ([3]; 0.1 μg/kg airway dripping) | Raw (cmH2O/ml/s) ([3]; 0.1 μg/kg airway dripping) | inhibitory rate of lung dynamic compliance decrease ([3]; 0.1 μg/kg airway dripping) [%] | inhibitory rate on airway resistance increase ([3]; 0.1 μg/kg airway dripping) [%] | Cdyn (ml/cmH2O) ([3]; 0.3 μg/kg airway dripping) | Raw (cmH2O/ml/s) ([3]; 0.3 μg/kg airway dripping) | inhibitory rate of lung dynamic compliance decrease ([3]; 0.3 μg/kg airway dripping) [%] | inhibitory rate on airway resistance increase ([3]; 0.3 μg/kg airway dripping) [%] | Cdyn (ml/cmH2O) ([3]; 1 μg/kg airway dripping) | Raw (cmH2O/ml/s) ([3]; 1 μg/kg airway dripping) | inhibitory rate of lung dynamic compliance decrease ([3]; 1 μg/kg airway dripping) [%] | inhibitory rate on airway resistance increase ([3]; 1 μg/kg airway dripping) [%]
1 | OCc1cc([C@@H](O)CNCCOCCCOCC[N+]23CCC(CC2)[C@@H](OC[C@@](O)(c2ccccc2)C2CCCC2)C3)ccc1O.[Br-] [Compound 48] | 6.32 ± 0.49 | more than 300 min | 0.0154 ± 0.012 | 423.8 | 0.115 ± 0.011 | 0.712 ± 0.065 | 32.2 | 66.2 | 0.139 ± 0.012 | 0.523 ± 0.032 | 48.9 | 88.3 | 0.207 ± 0.016 | 0.493 ± 0.071 | 50.1 | 91.6
2 | CC(C)(Cc1ccc(OCC[N+]23CCC(CC2)[C@@H](OC[C@@](O)(c2ccccc2)C2CCCCC2)C3)cc1)NC[C@H](O)c1ccc(O)c(NC=O)c1.[Br-] [Compound 99] | 7.35 ± 0.33 | more than 300 min | 0.0172 ± 0.0072 | 389 | 0.120 ± 0.017 | 0.778 ± 0.073 | 35.0 | 73.5 | 0.158 ± 0.021 | 0.528 ± 0.082 | 48.8 | 86.8 | 0.223 ± 0.035 | 0.421 ± 0.069 | 49.7 | 91.9
3 | OCc1cc([C@@H](O)CNCCOc2ccc(OCC[N+]34CCC(CC3)[C@@H](OC[C@@](O)(c3ccccc3)C3CCCC3)C4)cc2)ccc1O [Compound 114, (R)-(−)-3-[(R)-2-hydroxy-2-cyclopentyl-2-phenyl]ethoxy-1-{2-[4-(2-{(R)-[2-(3-hydroxymethyl-4-hydroxy)phenyl-2-hydroxy]ethylamino}ethyoxyl)phenoxy]ethyl}-1-azabicyclo[2,2,2]octylonium bromide] | 6.24 ± 0.13 | more than 300 min | – | 98.9 | – | – | – | – | – | – | – | – | – | – | – | –
4 | COc1cc(C(C)NC[C@H](O)c2ccc(O)c(CO)c2)ccc1OCCC[N+]12CCC(CC1)[C@@H](OC[C@@](O)(c1ccccc1)C1CCCC1)C2.[Br-] (stereo partly shown) [Compound 70] | 7.15 ± 0.31 | more than 300 min | 0.0183 ± 0.0087 | 379.8 | 0.218 ± 0.013 | 0.702 ± 0.098 | 34.2 | 69.6 | 0.357 ± 0.087 | 0.613 ± 0.107 | 47.8 | 86.5 | 0.345 ± 0.076 | 0.431 ± 0.095 | 49.3 | 92.1
5 | O=c1ccc2c([C@@H](O)CNCCc3ccc(OCCC[N+]45CCC(CC4)[C@@H](OC[C@@](O)(c4ccc(Cl)cc4)C4CCCC4)C5)cc3)ccc(O)c2[nH]1.[Br-] [Compound 78] | 6.48 ± 0.38 | more than 300 min | 0.0137 ± 0.0078 | 108.6 | – | – | – | – | – | – | – | – | – | – | – | –
6 | O=C1COc2c(cc(O)cc2[C@@H](O)CNCc2cc(Cl)c(OCCC[N+]34CCC(CC3)[C@@H](OC[C@@](O)(c3ccccc3)C3CCCC3)C4)c(Cl)c2)N1.[Br-] [Compound 106] | 6.26 ± 0.24 | more than 300 min | 0.0183 ± 0.0086 | 288.9 | – | – | – | – | – | – | – | – | – | – | – | –
7 | O=C1COc2c(cc(O)cc2C(O)CNCCCCOCCCCC[N+]23CCC(CC2)C(OCC(O)(c2ccccc2)C2CCCC2)C3)N1 [Compound 26, (R)-(−)-3-[(R)-2-hydroxy-2-cyclopentyl-2-phenyl]ethoxy-1-[5-(4-{(R)-[2-hydroxy-2-(6-hydroxy-2H-1,4-benzoxazin-3(4H)-one-8-yl)]ethylamino}butoxy)pentyl]-1-azabicyclo[2,2,2]octylonium bromide] | 6.56 ± 0.65 | more than 300 min | 0.087 ± 0.021 | 18.8 | – | – | – | – | – | – | – | – | – | – | – | –
8 | CC(C)(Cc1ccc(OCC[N+]23CCC(CC2)[C@@H](OC[C@@](O)(c2ccccc2)C2CCCC2)C3)cc1)NC[C@H](O)c1cc(O)cc2c1OCC(=O)N2 [Compound 60, (R)-(−)-3-[(R)-2-hydroxy-2-cyclopentyl-2-phenyl]ethoxy-1-{2-[4-(2-{(R)[-2-hydroxy-2-(6-hydroxy-2H-1,4-benzoxazin-3(4H)-one-8-yl)]ethylamino}isobutyl)phenoxy]ethyl}-1-azabicyclo[2,2,2]octylonium bromide] | 6.59 ± 0.43 | more than 300 min | 0.0523 ± 0.018 | 12.3 | – | – | – | – | – | – | – | – | – | – | – | –
9 | O=C1COc2c(cc(O)cc2[C@@H](O)CNCCCc2ccc(OCCC[N+]34CCC(CC3)[C@@H](OC[C@@](O)(c3ccccc3)C3CCCC3)C4)cc2)N1 [Compound 104] | 6.67 ± 0.17 | more than 300 min | 0.0106 ± 0.0079 | 29.6 | – | – | – | – | – | – | – | – | – | – | – | –
10 | O=CNc1cc(C(O)CNCCOCCOCC[N+]23CCC(CC2)C(OCC(O)(c2ccccc2)C2CCCC2)C3)ccc1O [Compound 46, (R)-(−)-3-[(R)-2-hydroxy-2-cyclopentyl-2-phenyl]ethoxy-1-{2-[2-(2-{(R)-[2-hydroxy-2-(3-formamido-4-hydroxy)phenyl]ethylamino}ethoxy)ethoxy]ethyl}-1-azabicyclo[2,2,2]octylonium chloride] | 6.75 ± 0.33 | more than 300 min | 0.136 ± 0.068 | 68.9 | – | – | – | – | – | – | – | – | – | – | – | –
11 | CC(C)(NC[C@H](O)c1ccc(O)c(CO)c1)c1ccc(OCCC[N+]23CCC(CC2)[C@@H](OC[C@@](O)(c2ccccc2)C2CCCC2)C3)cc1.[Br-] [Compound 71] | 6.92 ± 0.26 | more than 300 min | 0.019 ± 0.0061 | 468.2 | – | – | – | – | – | – | – | – | – | – | – | –
12 | COc1cc(NC(=O)CC[N+]23CCC(CC2)[C@@H](OC[C@@](O)(c2ccccc2)C2CCCC2)C3)c(Cl)cc1CNC[C@H](O)c1ccc(O)c(NC=O)c1.[Br-] [Compound 138] | 6.56 ± 0.23 | more than 300 min | 0.0186 ± 0.0033 | 228.3 | 0.124 ± 0.019 | 0.687 ± 0.079 | 31.0 | 74.8 | 0.158 ± 0.036 | 0.508 ± 0.093 | 48.2 | 88.9 | 0.231 ± 0.022 | 0.418 ± 0.086 | 49.9 | 92.6
13 | COC1CCC([C@@](O)(CO[C@H]2C[N+]3(CCC(=O)Nc4ccc(CNC[C@H](O)c5ccc(O)c(NC=O)c5)cc4)CCC2CC3)c2ccccc2)C1.[Br-] (stereo partly shown) [Compound 141] | 5.88 ± 0.26 | more than 300 min | 0.0363 ± 0.0095 | 135.9 | – | – | – | – | – | – | – | – | – | – | – | –
14 | O=C(CC[N+]12CCC(CC1)[C@@H](OC[C@@](O)(c1ccccc1)C1CCCC1)C2)Nc1ccc(CNC[C@H](O)c2cc(O)cc3c2OCC(=O)N3)cc1 [Compound 116, (R)-(−)-3-[(R)-2-hydroxy-2-cyclopentyl-2-phenyl]ethoxy-1-{3-[4-({(R)-[2-hydroxy-2-(6-hydroxy-2H-1,4-benzoxazin-3(4H)-one-8-yl)]ethylamino}methyl)anilino]oxopropyl}-1-azabicyclo[2,2,2]octylonium bromide] | 6.28 ± 0.56 | more than 300 min | 0.0267 ± 0.0072 | 68.8 | – | – | – | – | – | – | – | – | – | – | – | –
